One experiment deals with T1, BRM (Homo sapiens, UniProt P51531).
T1 construct: made in house; host or cells: High Five insect cells
The experiment can be described thus: ATPase catalytic activity of BRM, ADP-Glo in vitro biochemical assay. To be noted: ATPase catalytic activity, 30 nM BRM, 400 μM ATP, read-out: BRM IP50. On the technique in general: ADP-Glo first removes unused ATP, then detects ADP through luciferase.

A further experiment addresses T2, BRG-1 (Homo sapiens, UniProt P51532).
T2 construct: made in house; host or cells: High Five insect cells
Nature of the experiment: ATPase catalytic activity of BRG-1, ADP-Glo in vitro biochemical assay. The following applies: ATPase catalytic activity, 30 nM BRG-1, 400 μM ATP, read-out: BRG1 IP50.

T2 sequence (P51532 whole entry): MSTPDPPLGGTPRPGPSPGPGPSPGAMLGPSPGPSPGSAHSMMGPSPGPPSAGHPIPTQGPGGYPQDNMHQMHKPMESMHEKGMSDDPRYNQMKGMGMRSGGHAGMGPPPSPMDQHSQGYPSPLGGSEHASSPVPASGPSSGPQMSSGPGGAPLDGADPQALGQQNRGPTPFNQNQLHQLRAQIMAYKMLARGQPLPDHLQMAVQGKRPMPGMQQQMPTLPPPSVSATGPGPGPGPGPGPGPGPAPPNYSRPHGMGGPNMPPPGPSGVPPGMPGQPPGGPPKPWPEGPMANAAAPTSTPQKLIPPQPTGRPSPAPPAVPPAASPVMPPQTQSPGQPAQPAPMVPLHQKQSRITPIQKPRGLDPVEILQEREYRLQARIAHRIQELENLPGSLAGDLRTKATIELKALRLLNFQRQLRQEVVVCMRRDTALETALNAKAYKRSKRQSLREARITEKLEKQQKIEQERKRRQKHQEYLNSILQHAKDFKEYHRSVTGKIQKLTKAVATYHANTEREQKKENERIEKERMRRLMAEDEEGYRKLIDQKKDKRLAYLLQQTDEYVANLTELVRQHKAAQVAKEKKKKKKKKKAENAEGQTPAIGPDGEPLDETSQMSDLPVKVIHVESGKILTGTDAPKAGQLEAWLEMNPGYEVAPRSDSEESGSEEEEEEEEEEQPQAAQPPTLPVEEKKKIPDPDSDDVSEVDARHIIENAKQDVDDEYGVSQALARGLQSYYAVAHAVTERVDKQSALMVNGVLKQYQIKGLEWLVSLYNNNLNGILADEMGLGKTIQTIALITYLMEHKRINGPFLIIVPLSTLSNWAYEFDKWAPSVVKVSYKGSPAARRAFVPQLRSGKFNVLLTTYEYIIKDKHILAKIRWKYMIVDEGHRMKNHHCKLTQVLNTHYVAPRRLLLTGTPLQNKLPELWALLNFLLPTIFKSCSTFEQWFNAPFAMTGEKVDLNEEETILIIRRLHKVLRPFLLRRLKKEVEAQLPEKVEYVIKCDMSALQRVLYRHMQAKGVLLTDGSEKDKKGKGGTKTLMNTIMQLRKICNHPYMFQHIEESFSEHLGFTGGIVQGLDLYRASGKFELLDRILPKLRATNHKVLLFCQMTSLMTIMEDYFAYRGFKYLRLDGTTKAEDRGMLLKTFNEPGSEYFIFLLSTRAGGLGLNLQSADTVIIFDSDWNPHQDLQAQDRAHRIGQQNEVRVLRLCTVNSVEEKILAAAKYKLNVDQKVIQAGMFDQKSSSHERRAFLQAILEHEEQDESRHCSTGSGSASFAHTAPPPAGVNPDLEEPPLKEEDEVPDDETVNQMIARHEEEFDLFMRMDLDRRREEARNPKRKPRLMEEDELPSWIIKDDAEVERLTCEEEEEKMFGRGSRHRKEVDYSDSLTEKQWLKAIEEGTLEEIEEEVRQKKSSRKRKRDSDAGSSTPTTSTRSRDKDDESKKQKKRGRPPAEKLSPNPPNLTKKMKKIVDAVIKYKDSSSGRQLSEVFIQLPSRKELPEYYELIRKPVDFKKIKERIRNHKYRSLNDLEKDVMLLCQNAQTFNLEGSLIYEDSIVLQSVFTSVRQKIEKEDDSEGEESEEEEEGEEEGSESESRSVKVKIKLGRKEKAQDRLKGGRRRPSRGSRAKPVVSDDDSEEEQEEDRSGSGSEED
T1 sequence (P51531 whole entry): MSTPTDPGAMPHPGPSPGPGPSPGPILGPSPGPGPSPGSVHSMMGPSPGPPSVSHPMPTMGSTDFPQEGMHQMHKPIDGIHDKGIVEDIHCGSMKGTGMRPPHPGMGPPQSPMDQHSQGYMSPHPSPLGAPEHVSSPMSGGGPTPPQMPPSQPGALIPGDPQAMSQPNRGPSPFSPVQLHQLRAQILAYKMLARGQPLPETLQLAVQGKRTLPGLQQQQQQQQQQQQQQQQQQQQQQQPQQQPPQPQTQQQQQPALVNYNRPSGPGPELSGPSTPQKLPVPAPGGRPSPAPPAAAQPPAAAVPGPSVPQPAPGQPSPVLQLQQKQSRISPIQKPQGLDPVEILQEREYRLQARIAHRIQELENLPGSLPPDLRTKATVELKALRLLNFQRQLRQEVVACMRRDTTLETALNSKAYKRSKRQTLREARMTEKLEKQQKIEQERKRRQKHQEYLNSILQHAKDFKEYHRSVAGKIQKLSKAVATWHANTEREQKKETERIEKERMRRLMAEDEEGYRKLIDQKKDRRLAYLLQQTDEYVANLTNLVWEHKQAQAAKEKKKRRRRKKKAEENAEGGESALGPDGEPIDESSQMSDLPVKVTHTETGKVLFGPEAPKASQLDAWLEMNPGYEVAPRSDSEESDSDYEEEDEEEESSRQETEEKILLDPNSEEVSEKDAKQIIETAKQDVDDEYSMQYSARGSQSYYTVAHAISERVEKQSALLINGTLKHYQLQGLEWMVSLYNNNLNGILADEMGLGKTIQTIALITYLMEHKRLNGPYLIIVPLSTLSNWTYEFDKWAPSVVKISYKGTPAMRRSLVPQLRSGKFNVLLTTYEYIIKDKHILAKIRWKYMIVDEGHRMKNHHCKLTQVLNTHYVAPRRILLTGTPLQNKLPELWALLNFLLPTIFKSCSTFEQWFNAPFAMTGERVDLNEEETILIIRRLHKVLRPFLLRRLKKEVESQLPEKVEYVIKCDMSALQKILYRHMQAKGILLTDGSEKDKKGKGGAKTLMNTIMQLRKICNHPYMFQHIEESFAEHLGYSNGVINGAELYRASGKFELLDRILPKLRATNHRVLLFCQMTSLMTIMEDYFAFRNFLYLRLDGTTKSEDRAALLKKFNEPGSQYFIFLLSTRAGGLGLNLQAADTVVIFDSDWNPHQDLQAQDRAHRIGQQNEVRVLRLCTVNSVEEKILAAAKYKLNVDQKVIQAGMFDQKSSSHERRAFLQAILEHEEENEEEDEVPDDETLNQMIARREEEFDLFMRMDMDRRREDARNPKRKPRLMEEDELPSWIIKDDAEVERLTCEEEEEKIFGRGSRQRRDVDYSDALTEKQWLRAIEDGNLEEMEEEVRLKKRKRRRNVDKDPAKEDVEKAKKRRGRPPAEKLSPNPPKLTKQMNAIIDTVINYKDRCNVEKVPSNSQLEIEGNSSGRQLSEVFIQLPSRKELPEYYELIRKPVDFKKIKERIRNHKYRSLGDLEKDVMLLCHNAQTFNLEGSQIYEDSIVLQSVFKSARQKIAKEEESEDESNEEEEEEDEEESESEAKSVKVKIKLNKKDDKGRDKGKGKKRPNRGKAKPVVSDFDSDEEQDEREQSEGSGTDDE

On to `CS(=O)(=O)n1ccc(C(=O)NCC(=O)Nc2nc(-c3cccc(N4CC[C@@H](N)C(F)(F)C4)c3)cs2)c1` [Compound 558], for which the IC50 on BRM and on BRG-1 was under 10 nM throughout.
Regarding `N#CC1(n2ccc(C(=O)NCC(=O)Nc3nc(-c4cccc(OC5CC5)n4)cs3)c2)CC1` [Compound 559], the IC50 at BRM and at BRG-1 was over 100 nM throughout.
Turning to `C[C@@H]1CN(c2cccc(-c3csc(NC(=O)[C@H](C)NC(=O)c4ccn(C5(C#N)CC5)c4)n3)n2)C[C@H](C)O1` [Compound 560], the IC50 on BRM and at BRG-1 was over 10 nM throughout.
Turning to `COC[C@H](NC(=O)c1ccn(C(C)(C)C)c1)C(=O)Nc1nc(-c2ccc3c(F)cn(C)c(=O)c3c2)cs1` [Compound 561], the IC50 at BRM and at BRG-1 was under 10 nM each time.
With `Cn1ccc(-c2cccc(-c3csc(NC(=O)CNC(=O)c4ccn(C(C)(C)C#N)c4)n3)c2)n1` [Compound 562], the IC50 at BRM is under 10 nM; at BRG-1, over 10 nM.
Taken in the same sequence, the figures for `COC[C@H](NC(=O)c1ccn(C(C)(C)C)c1)C(=O)Nc1nc(-c2cc(F)c3ccn(C)c(=O)c3c2)cs1` [Compound 563] were under 10 nM and under 10 nM.
Taken in the same sequence, the figures for `COC[C@H](NC(=O)c1ccn(C2(C)COC2)c1)C(=O)Nc1nc(-c2cc(F)c3ccn(C)c(=O)c3c2)cs1` [Compound 564] were under 10 nM and under 10 nM.
Turning to `CN1CCc2c(F)ccc(-c3csc(NC(=O)CNC(=O)c4ccn(S(C)(=O)=O)c4)n3)c21` [Compound 565], the IC50 at BRM and at BRG-1 was over 10 nM each time.
For `COCC[C@H](NC(=O)c1ccn(C(C)(C)C)c1)C(=O)Nc1nc(-c2ccc3ccn(C)c(=O)c3c2)cs1` [Compound 567], the IC50 at BRM and on BRG-1 was over 10 nM each time.
As to `COC[C@H](NC(=O)c1ccn(C2(C#N)CC2)c1)C(=O)Nc1nc(-c2cccc(-c3ccn(C)n3)c2)cs1` [Compound 568], the IC50 at BRM and on BRG-1 was over 10 nM throughout.
In the case of `CN1CCc2c(F)cc(-c3csc(NC(=O)CNC(=O)c4ccn(S(C)(=O)=O)c4)n3)cc21` [Compound 569], the IC50 at BRM and on BRG-1 was under 10 nM throughout.
Consider `CC(C)(C#N)n1ccc(C(=O)NCC(=O)Nc2nc(-c3cc(F)c4c(c3)OCC4)cs2)c1` [Compound 571], for which the IC50 was under 10 nM at BRM and over 10 nM on BRG-1.
For `COC[C@H](NC(=O)c1ccn(C2(C)COC2)c1)C(=O)Nc1nc(-c2cccc(-c3ccn(C)n3)c2)cs1` [Compound 572], in that order: over 10 nM and over 10 nM.
Taken in the same sequence, the figures for `COC[C@H](NC(=O)c1ccn(S(C)(=O)=O)c1)C(=O)Nc1nc(-c2cccc(N3CCC3)c2F)cs1` [Compound 573] were over 10 nM and over 10 nM.
Taken in the same sequence, the figures for `CS(=O)(=O)n1ccc(C(=O)NCC(=O)Nc2nc(-c3ccc4c(c3)OCO4)cs2)c1` [Compound 574] were over 10 nM and over 10 nM.
As to `CS(=O)(=O)n1ccc(C(=O)NCC(=O)Nc2nc(-c3cccc([C@@H]4CC4(F)F)c3)cs2)c1` [Compound 575], the IC50 at BRM and on BRG-1 was over 10 nM in each case.
In the case of `CS(=O)(=O)n1ccc(C(=O)NCC(=O)Nc2nc(-c3cccc([C@H]4CC4(F)F)c3)cs2)c1` [Compound 576], the IC50 is under 10 nM at BRM and over 10 nM on BRG-1.
`COC(=O)N1CCC[C@@H](c2csc(NC(=O)CNC(=O)c3ccn(S(C)(=O)=O)c3)n2)C1` [Compound 578]: the IC50 was over 10 nM on BRM and over 100 nM on BRG-1.
On to `COC(=O)N1CCC[C@H](c2csc(NC(=O)CNC(=O)c3ccn(S(C)(=O)=O)c3)n2)C1` [Compound 579], for which the IC50 on BRM and on BRG-1 was over 100 nM throughout.
Take `COC(=O)N1CCC[C@@H](c2csc(NC(=O)CNC(=O)c3ccn(C(C)(C)C)c3)n2)C1` [Compound 580]: the IC50 at BRM and on BRG-1 was over 100 nM throughout.
Turning to `COC(=O)N1CCC[C@H](c2csc(NC(=O)CNC(=O)c3ccn(C(C)(C)C)c3)n2)C1` [Compound 581], the IC50 at BRM and at BRG-1 was over 100 nM throughout.
For `COC[C@H](NC(=O)c1ccn(C(C)(C)C)c1)C(=O)Nc1nc(-c2ccc3ccn(C(F)F)c(=O)c3c2)cs1` [Compound 583], the IC50 at BRM and on BRG-1 was over 10 nM throughout.
Take `COC[C@H](NC(=O)c1ccn(C(C)(C)C#N)c1)C(=O)Nc1nc(-c2ccc3ccn(C)c(=O)c3c2)cs1` [Compound 584]: the IC50 on BRM and on BRG-1 was under 10 nM throughout.
Regarding `CS(=O)(=O)n1ccc(C(=O)NCC(=O)Nc2nc(-c3cccc(N4CC[C@H](C(F)F)C4)c3)cs2)c1` [Compound 585], the IC50 at BRM was under 10 nM; on BRG-1, over 10 nM.
Taken in the same sequence, the figures for `CS(=O)(=O)n1ccc(C(=O)NCC(=O)Nc2nc(-c3cccc(N4CC[C@@H](C(F)F)C4)c3)cs2)c1` [Compound 586] were over 10 nM and over 10 nM.
Taken in the same sequence, the figures for `C[C@H](NC(=O)c1ccn(C2(C#N)CC2)c1)C(=O)Nc1nc(-c2cccc(-c3ccn(C)n3)c2)cs1` [Compound 588] were over 10 nM and over 100 nM.
Taken in the same sequence, the figures for `C[C@H](NC(=O)c1ccn(C2(C)COC2)c1)C(=O)Nc1nc(-c2cccc(-c3ccn(C)n3)c2)cs1` [Compound 589] were over 10 nM and over 100 nM.
On to `CN1CCOc2ccc(-c3csc(NC(=O)CNC(=O)c4ccn(C(C)(C)C#N)c4)n3)cc21` [Compound 590], for which the IC50 on BRM and on BRG-1 was over 10 nM throughout.
Regarding `C[C@H](NC(=O)c1ccn(S(C)(=O)=O)c1)C(=O)Nc1nc(-c2cccc(-c3ccn(C)n3)c2)cs1` [Compound 591], the IC50 at BRM and at BRG-1 was over 10 nM each time.
Take `COC[C@H](NC(=O)c1ccn(S(C)(=O)=O)c1)C(=O)Nc1nc(-c2ccc(F)c(OC(F)(F)F)c2)cs1` [Compound 592]: the IC50 at BRM and on BRG-1 was over 10 nM each time.
In the case of `COC[C@H](NC(=O)c1ccn(S(C)(=O)=O)c1)C(=O)Nc1nc(-c2cc(F)cc(OC(F)(F)F)c2)cs1` [Compound 593], the IC50 at BRM and on BRG-1 was over 10 nM in each case.
As to `N#CC1(n2ccc(C(=O)NCC(=O)Nc3nc(-c4cccc(N5CCC5)n4)cs3)c2)COC1` [Compound 595], the IC50 on BRM and on BRG-1 was over 10 nM throughout.
On to `COC[C@H](NC(=O)c1ccn(S(C)(=O)=O)c1)C(=O)Nc1nc(-c2ccc3c(c2)OCO3)cs1` [Compound 596], for which the IC50 is under 10 nM on BRM and over 10 nM at BRG-1.
Taken in the same sequence, the figures for `COC[C@H](NC(=O)c1ccn(S(C)(=O)=O)c1)C(=O)Nc1nc(-c2cccc([C@@H]3CC3(F)F)c2)cs1` [Compound 598] were over 10 nM and over 10 nM.
Taken in the same sequence, the figures for `COC[C@H](NC(=O)c1ccn(S(C)(=O)=O)c1)C(=O)Nc1nc(-c2cccc([C@H]3CC3(F)F)c2)cs1` [Compound 599] were over 10 nM and over 10 nM.
On to `C[C@@H]1CN(c2cccc(-c3csc(NC(=O)[C@H](C)NC(=O)c4ccn(C5(C#N)COC5)c4)n3)n2)C[C@H](C)O1` [Compound 600], for which the IC50 on BRM and at BRG-1 was under 10 nM in each case.
For `N#CC1(n2ccc(C(=O)NCC(=O)Nc3nc(-c4cccc(N5CCC5)c4)cs3)c2)COC1` [Compound 601], the IC50 on BRM is under 10 nM; on BRG-1, over 10 nM.
For `C[C@@H]1CN(c2cccc(-c3csc(NC(=O)CNC(=O)c4ccn(C5(C#N)COC5)c4)n3)n2)C[C@H](C)O1` [Compound 602], in that order: under 10 nM and under 10 nM.
Taken in the same sequence, the figures for `COC[C@H](NC(=O)c1ccn(C(C)(C)C)c1)C(=O)Nc1nc(-c2ccc3ccn(C4COC4)c(=O)c3c2)cs1` [Compound 603] were under 10 nM and under 10 nM.
Taken in the same sequence, the figures for `CCO[C@H](NC(=O)c1ccn(S(C)(=O)=O)c1)C(=O)Nc1nc(-c2cccc([C@H]3CC3(F)F)n2)cs1` [Compound 606] were over 10 nM and over 100 nM.
Turning to `CS(=O)(=O)n1ccc(C(=O)NCC(=O)Nc2nc(-c3cc(Cl)c4c(c3)OCO4)cs2)c1` [Compound 607], the IC50 at BRM and at BRG-1 was over 10 nM each time.
With `CS(=O)(=O)n1ccc(C(=O)NCC(=O)Nc2nc(-c3cccc([C@@H]4CC4(F)F)n3)cs2)c1` [Compound 608], the results for the IC50 on BRM and on BRG-1 were over 10 nM and over 100 nM, respectively.
For `CS(=O)(=O)n1ccc(C(=O)NCC(=O)Nc2nc(-c3cccc([C@H]4CC4(F)F)n3)cs2)c1` [Compound 609], in that order: over 10 nM and over 10 nM.
For `COC[C@H](NC(=O)c1ccn(S(C)(=O)=O)c1)C(=O)Nc1nc(-c2cc(F)cc(OC3CC3)c2)cs1` [Compound 610], in that order: over 10 nM and over 10 nM.
For `COC[C@H](NC(=O)c1ccn(C(C)(C)C)c1)C(=O)Nc1nc(-c2cnc3ccn(C)c(=O)c3c2)cs1` [Compound 611], in that order: over 10 nM and over 10 nM.
Turning to `CS(=O)(=O)n1ccc(C(=O)NCC(=O)Nc2nc(-c3ccc(F)c(OC4CC4)c3F)cs2)c1` [Compound 612], the IC50 at BRM and on BRG-1 was over 10 nM each time.
Regarding `COC[C@H](NC(=O)c1ccn(S(C)(=O)=O)c1)C(=O)Nc1nc(-c2ccc(F)c(OC3CC3)c2F)cs1` [Compound 613], the IC50 is over 10 nM on BRM and over 100 nM at BRG-1.
For `CS(=O)(=O)n1ccc(C(=O)NCC(=O)Nc2nc(-c3ccc(F)c(OC4CC4)n3)cs2)c1` [Compound 614], in that order: over 10 nM and over 10 nM.
Taken in the same sequence, the figures for `COC[C@H](NC(=O)c1ccn(C(C)(C)C#N)c1)C(=O)Nc1nc(-c2cccc(-c3cnn(C)n3)c2)cs1` [Compound 615] were under 10 nM and under 10 nM.
Taken in the same sequence, the figures for `CS(=O)(=O)n1ccc(C(=O)NCC(=O)Nc2nc(-c3cc(F)c4c(c3)OCO4)cs2)c1` [Compound 616] were under 10 nM and under 10 nM.
